Converted amounts (≈) assume the structure as drawn. The source made the active and inactive calls. The calls are words filed in the database; no cut-off is given here.
Tests used:
Candida albicans = assay: Antifungal activity against Candida albicans ATCC 60193 assessed as inhibition of fungal growth incubated for 48 hrs by agar diffusion method; format: functional, organism-based
Pseudomonas aeruginosa [1] = assay: Antibacterial activity against Pseudomonas aeruginosa assessed as inhibition of bacterial growth incubated for 24 hrs by CLSI broth microdilution method; format: functional; details: for MIC: Pseudomonas aeruginosa
Pseudomonas aeruginosa [2] = assay: Antibacterial activity against Pseudomonas aeruginosa ATCC 27853 assessed as zone of growth inhibition incubated for 24 hrs by agar diffusion method; format: functional
[3] = Inhibition of quorum sensing system in Pseudomonas aeruginosa assessed as inhibition of biofilm production at sub-MIC incubated for 24 hrs by crystal violet staining based analysis
[4] = Inhibition of quorum sensing system in Pseudomonas aeruginosa assessed as inhibition of pyocyanin production at sub-MIC by absorbance based analysis
[5] = Inhibition of quorum sensing system in Pseudomonas aeruginosa assessed as inhibition of rhamnolipid production at sub-MIC by spectrophotometric method
Bacillus subtilis = assay: Antibacterial activity against Bacillus subtilis ATCC 6633 assessed as inhibition of bacterial growth incubated for 24 hrs by agar diffusion method; format: functional, organism-based
Klebsiella pneumoniae = assay: Antibacterial activity against Klebsiella pneumoniae ATCC 700603 assessed as inhibition of bacterial growth incubated for 24 hrs by agar diffusion method; format: functional, organism-based
[6] = Cytotoxicity against human HDFa cells assessed as reduction in cell viability incubated for 24 hrs by MTT assay; format: toxicity, cell-based
Escherichia coli = assay: Antibacterial activity against Escherichia coli ATCC 25922 assessed as inhibition of bacterial growth incubated for 24 hrs by agar diffusion method; format: functional, organism-based
[7] = Selectivity index, ratio of IC50 for human HDFa cells to MIC for antibacterial activity against Pseudomonas aeruginosa; format: toxicity; details: read-out: Selectivity Index

Row | Compound | Activity (Candida albicans) | SubMIC (Pseudomonas aeruginosa [1]) [µM] | MIC (Pseudomonas aeruginosa [1]) [µM] | inhibition zone (IZ) (Pseudomonas aeruginosa [2]) [mm] | inhibition [3] [%] | inhibition [4] [%] | inhibition [5] [%] | Activity (Bacillus subtilis) | Activity (Klebsiella pneumoniae) | IC50 at 24 h [6] [µg/mL] | Activity (Escherichia coli) | selectivity ratio [7]
1 | COc1ccc(NC(=O)COc2ccc(-c3nc4cc(Cl)ccc4[nH]3)cc2)cc1 | Active | 8.5 | 34.3 (≈ 14 µg/mL) | 17 | 39.2 | 28.9 | 13.8 | Active |  |  |  | 
2 | O=C(COc1ccc(-c2nc3cc(Cl)ccc3[nH]2)cc1)Nc1ccc([N+](=O)[O-])cc1 |  | 16.5 | 66.5 (≈ 28.1 µg/mL) | 16 | 32.5 | 14.8 | 7 |  | Active |  |  | 
3 | Cc1ccc(NC(=O)COc2ccc(-c3nc4cc(Cl)ccc4[nH]3)cc2)cc1 |  | 8.9 | 35.7 (≈ 14 µg/mL) | 18 | 31.3 | 24.5 | 11.4 |  | Active |  |  | 
4 | Cc1ccc(NC(=O)COc2ccc(-c3nc4ccccc4[nH]3)cc2)cc1 |  | 39.1 | 157 (≈ 56.2 µg/mL) | 13 | 52.4 | 36.4 | 25.1 |  |  |  |  | 
5 | O=C(COc1ccc(-c2nc3ccccc3[nH]2)cc1)Nc1ccc(Cl)cc1 | Active | 37 | 149 (≈ 56.2 µg/mL) | 17 | 63.1 | 58 | 34.4 |  | Active |  |  | 
6 | Cc1ccc2[nH]c(-c3ccc(OCC(=O)Nc4ccc(Cl)cc4)cc3)nc2c1 |  | 8.9 | 35.7 (≈ 14 µg/mL) | 19 | 55.7 | 38.2 | 29.6 | Active |  |  |  | 
7 | Cc1ccc2[nH]c(-c3ccc(OCC(=O)Nc4ccc([N+](=O)[O-])cc4)cc3)nc2c1 |  | 17.4 | 69.9 (≈ 28.1 µg/mL) | 15 | 44.1 | 33.7 | 15 | Active |  |  |  | 
8 | O=C(COc1ccc(-c2nc3cc(Cl)ccc3[nH]2)cc1)Nc1ccc(F)cc1 | Active | 8.8 | 35.3 (≈ 14 µg/mL) | 19 | 45 | 32.8 | 18.1 |  | Active |  |  | 
9 | O=C(COc1ccc(-c2nc3ccccc3[nH]2)cc1)Nc1ccc(F)cc1 |  | 38.7 | 156 (≈ 56.2 µg/mL) | 17 | 51.8 | 37 | 27.7 |  |  |  |  | 
10 | Cc1ccc2[nH]c(-c3ccc(OCC(=O)Nc4ccccc4C)cc3)nc2c1 | Active | 18.8 | 57.7 (≈ 21.4 µg/mL) | 14 | 39.5 | 31 | 13.6 |  |  |  |  | 
11 | C/C(=C\C(=O)OCCCCCCCCC(=O)O)C[C@@H]1OC[C@H](C[C@@H]2O[C@H]2[C@@H](C)[C@H](C)O)[C@@H](O)[C@H]1O [MUPIROCIN] |  |  |  |  |  |  |  |  |  | 161 (≈ 322 µM) |  | 
12 | O=C(COc1ccc(-c2nc3ccccc3[nH]2)cc1)Nc1ccccc1 |  | 40.7 | 164 (≈ 56.2 µg/mL) | 19 | 51.5 | 36.7 | 28.2 |  |  |  |  | 
13 | c1ccc2[nH]c(-c3ccc(-n4ccnc4)cc3)nc2c1 |  | 26.8 | 109 (≈ 28.3 µg/mL) | 18 | 46.1 | 34 | 20.1 |  | Active |  |  | 
14 | Cc1ccc2[nH]c(-c3ccc(OCC(=O)Nc4ccccc4)cc3)nc2c1 |  | 19.5 | 78.7 (≈ 28.1 µg/mL) | 15 | 56.3 | 54.3 | 33 | Active |  |  |  | 
15 | Cc1ccccc1NC(=O)COc1ccc(-c2nc3cc(Cl)ccc3[nH]2)cc1 |  | 17.8 | 71.7 (≈ 28.1 µg/mL) | 16 | 29 | 6.5 | 3 |  | Active |  |  | 
16 | Cc1ccc2[nH]c(-c3ccc(OCC(=O)Nc4ccc(F)cc4)cc3)nc2c1 |  | 9.3 | 37.2 (≈ 14 µg/mL) | 19 | 59.6 | 55.8 | 35.2 | Active |  |  |  | 
17 | c1ccc2[nH]c(-c3ccc(N4CCOCC4)cc3)nc2c1 |  | 50.1 | 201 (≈ 56.2 µg/mL) | 18 | 60.5 | 55.2 | 35.7 |  | Active |  |  | 
18 | COc1ccc(NC(=O)COc2ccc(-c3nc4cc(C)ccc4[nH]3)cc2)cc1 |  | 9 | 36.1 (≈ 14 µg/mL) | 15 | 36.7 | 29 | 12.6 | Active |  |  | Active | 
19 | O=C(COc1ccc(-c2nc3cc(Cl)ccc3[nH]2)cc1)Nc1ccccc1[N+](=O)[O-] |  | 16.5 | 66.5 (≈ 28.1 µg/mL) | 16 | 51.8 | 35.8 | 20.4 |  | Active |  |  | 
20 | O=C(COc1ccc(-c2nc3cc(Cl)ccc3[nH]2)cc1)Nc1ccc(Cl)cc1 |  | 16.9 | 68.2 (≈ 28.1 µg/mL) | 17 | 31 | 13.4 | 3.7 |  | Active |  | Active | 
21 | O=C(COc1ccc(-c2nc3ccccc3[nH]2)cc1)Nc1ccccc1[N+](=O)[O-] |  | 36 | 145 (≈ 56.2 µg/mL) | 15 | 63.8 | 60.3 | 44.6 | Active |  |  |  | 
22 | O=C(COc1ccc(-c2nc3cc(Cl)ccc3[nH]2)cc1)Nc1ccccc1 |  | 18.5 | 74.4 (≈ 28.1 µg/mL) | 15 | 53.1 | 35.5 | 20.7 |  |  | 102 (≈ 270 µM) |  | 3.63
23 | O=C(COc1ccc(-c2nc3ccccc3[nH]2)cc1)Nc1ccc([N+](=O)[O-])cc1 |  | 36 | 145 (≈ 56.2 µg/mL) | 17 | 63.6 | 57.6 | 35.2 |  |  |  |  | 
24 | C[C@@H](O)[C@H]1C(=O)N2C(C(=O)O)=C(SCCNC=N)C[C@H]12 [IMIPENEM ANHYDROUS] |  |  | 93.9 (≈ 28.1 µg/mL) | 19 |  |  |  |  |  |  |  | 
25 | Cc1ccc(NC(=O)COc2ccc(-c3nc4cc(C)ccc4[nH]3)cc2)cc1 |  | 18.8 | 57.7 (≈ 21.4 µg/mL) | 16 | 64.9 | 60 | 37.8 |  |  |  | Active | 

— ChEMBL document CHEMBL5108020, “Design and synthesis of novel benzimidazole derivatives as potential Pseudomonas aeruginosa anti-biofilm agents inhibiting LasR: Evidence from comprehensive molecular dynamics simulation and in vitro investigation” (Eur J Med Chem, 2022)
